Experiments:
Assay in all cases: radiometric filter-binding kinase assay, Kinase HotSpot
DYRK4 (human) = DYRK4 (human) (UniProt Q9NR20); details: compound 0.5 µM; ATP 10 µM
TXK (human) = TXK (human) (UniProt P42681); details: compound 0.5 µM; ATP 10 µM
CAMK1G (human) = CAMK1G (human) (UniProt Q96NX5); details: compound 0.5 µM; ATP 10 µM
MYLK2 (human) = MYLK2 (human) (UniProt Q9H1R3); details: compound 0.5 µM; ATP 10 µM
CLK2 (human) = CLK2 (human) (UniProt P49760); details: compound 0.5 µM; ATP 10 µM
PNCK (human) = PNCK (human) (UniProt Q6P2M8); details: compound 0.5 µM; ATP 10 µM
CHEK2 (human) = CHEK2 (human) (UniProt O96017); details: compound 0.5 µM; ATP 10 µM
Sequence of CHEK2 (human) (O96017 whole entry, looked up): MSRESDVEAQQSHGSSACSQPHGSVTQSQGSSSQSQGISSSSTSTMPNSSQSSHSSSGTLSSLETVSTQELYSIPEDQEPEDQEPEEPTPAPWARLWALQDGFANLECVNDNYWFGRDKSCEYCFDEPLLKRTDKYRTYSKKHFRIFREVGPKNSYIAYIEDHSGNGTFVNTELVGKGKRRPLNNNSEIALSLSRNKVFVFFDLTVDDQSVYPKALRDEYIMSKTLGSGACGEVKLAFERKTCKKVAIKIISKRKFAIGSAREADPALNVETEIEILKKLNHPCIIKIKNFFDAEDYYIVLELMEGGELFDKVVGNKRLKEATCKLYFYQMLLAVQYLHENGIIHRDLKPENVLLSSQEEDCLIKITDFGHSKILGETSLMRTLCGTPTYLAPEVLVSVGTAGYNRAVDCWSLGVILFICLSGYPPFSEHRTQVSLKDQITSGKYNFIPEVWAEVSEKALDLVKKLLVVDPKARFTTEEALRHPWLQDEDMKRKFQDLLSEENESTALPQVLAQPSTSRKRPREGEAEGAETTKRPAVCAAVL

PAK7 (human) = PAK7 (human) (UniProt Q9P286); details: compound 0.5 µM; ATP 10 µM
IKBKE (human) = IKBKE (human) (UniProt Q14164); details: compound 0.5 µM; ATP 10 µM
PLK3 (human) = PLK3 (human) (UniProt Q9H4B4); details: compound 0.5 µM; ATP 10 µM
BRAF (human) = BRAF (human) (UniProt P15056); details: compound 0.5 µM; ATP 10 µM
EPHA4 (human) = EPHA4 (human) (UniProt P54764); details: compound 0.5 µM; ATP 10 µM
Sequence of EPHA4 (human) (P54764 whole entry, looked up): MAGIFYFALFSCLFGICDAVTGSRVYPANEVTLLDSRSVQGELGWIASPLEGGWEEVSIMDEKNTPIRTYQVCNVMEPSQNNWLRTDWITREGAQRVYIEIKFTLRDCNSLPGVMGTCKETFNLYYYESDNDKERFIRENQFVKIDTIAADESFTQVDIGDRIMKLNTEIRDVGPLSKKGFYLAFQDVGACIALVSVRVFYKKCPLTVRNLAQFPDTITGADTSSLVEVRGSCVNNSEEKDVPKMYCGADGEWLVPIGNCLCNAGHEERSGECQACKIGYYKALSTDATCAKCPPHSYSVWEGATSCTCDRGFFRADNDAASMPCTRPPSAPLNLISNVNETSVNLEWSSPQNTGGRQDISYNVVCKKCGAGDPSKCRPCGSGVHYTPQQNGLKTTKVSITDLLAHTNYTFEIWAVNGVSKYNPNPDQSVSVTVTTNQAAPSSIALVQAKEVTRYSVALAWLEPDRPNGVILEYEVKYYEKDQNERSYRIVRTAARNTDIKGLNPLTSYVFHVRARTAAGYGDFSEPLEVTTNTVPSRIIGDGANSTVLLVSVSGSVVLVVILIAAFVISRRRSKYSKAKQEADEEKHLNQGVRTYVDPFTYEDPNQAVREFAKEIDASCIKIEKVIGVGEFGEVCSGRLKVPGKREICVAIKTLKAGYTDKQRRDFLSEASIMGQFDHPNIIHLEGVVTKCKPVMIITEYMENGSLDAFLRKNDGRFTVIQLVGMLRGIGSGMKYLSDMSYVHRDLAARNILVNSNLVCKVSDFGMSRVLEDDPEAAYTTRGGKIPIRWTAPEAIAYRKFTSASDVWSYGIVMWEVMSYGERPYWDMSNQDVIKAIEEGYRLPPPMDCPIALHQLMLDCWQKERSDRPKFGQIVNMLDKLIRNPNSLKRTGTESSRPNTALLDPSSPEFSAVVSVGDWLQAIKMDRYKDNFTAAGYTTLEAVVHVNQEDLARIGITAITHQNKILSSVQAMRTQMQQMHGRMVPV

DYRK1B (human) = DYRK1B (human) (UniProt Q9Y463); details: compound 0.5 µM; ATP 10 µM
STK33 (human) = STK33 (human) (UniProt Q9BYT3); details: compound 0.5 µM; ATP 10 µM
Sequence of STK33 (human) (Q9BYT3 whole entry, looked up): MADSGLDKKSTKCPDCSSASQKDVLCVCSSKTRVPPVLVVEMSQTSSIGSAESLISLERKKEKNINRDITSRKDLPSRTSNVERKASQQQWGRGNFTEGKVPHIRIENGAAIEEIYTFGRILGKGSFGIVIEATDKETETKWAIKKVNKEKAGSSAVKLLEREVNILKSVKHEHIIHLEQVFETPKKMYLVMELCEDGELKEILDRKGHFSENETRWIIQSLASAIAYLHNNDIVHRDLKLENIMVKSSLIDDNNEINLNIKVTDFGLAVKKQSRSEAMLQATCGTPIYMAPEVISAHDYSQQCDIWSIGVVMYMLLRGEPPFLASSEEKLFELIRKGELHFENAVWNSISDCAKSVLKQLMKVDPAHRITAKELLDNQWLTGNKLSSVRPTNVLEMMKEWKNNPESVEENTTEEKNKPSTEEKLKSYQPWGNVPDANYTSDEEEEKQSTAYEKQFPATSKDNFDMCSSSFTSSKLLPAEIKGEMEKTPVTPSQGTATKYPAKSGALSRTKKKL

LCK (human) = LCK (human) (UniProt P06239); details: compound 0.5 µM; ATP 10 µM
CDK6 CCND1 (human) = CDK6 CCND1 (human) (UniProt Q00534+P24385); details: compound 0.5 µM
MST1R (human) = MST1R (human) (UniProt Q04912); details: compound 0.5 µM; ATP 10 µM
Sequence of MST1R (human) (Q04912 whole entry, looked up): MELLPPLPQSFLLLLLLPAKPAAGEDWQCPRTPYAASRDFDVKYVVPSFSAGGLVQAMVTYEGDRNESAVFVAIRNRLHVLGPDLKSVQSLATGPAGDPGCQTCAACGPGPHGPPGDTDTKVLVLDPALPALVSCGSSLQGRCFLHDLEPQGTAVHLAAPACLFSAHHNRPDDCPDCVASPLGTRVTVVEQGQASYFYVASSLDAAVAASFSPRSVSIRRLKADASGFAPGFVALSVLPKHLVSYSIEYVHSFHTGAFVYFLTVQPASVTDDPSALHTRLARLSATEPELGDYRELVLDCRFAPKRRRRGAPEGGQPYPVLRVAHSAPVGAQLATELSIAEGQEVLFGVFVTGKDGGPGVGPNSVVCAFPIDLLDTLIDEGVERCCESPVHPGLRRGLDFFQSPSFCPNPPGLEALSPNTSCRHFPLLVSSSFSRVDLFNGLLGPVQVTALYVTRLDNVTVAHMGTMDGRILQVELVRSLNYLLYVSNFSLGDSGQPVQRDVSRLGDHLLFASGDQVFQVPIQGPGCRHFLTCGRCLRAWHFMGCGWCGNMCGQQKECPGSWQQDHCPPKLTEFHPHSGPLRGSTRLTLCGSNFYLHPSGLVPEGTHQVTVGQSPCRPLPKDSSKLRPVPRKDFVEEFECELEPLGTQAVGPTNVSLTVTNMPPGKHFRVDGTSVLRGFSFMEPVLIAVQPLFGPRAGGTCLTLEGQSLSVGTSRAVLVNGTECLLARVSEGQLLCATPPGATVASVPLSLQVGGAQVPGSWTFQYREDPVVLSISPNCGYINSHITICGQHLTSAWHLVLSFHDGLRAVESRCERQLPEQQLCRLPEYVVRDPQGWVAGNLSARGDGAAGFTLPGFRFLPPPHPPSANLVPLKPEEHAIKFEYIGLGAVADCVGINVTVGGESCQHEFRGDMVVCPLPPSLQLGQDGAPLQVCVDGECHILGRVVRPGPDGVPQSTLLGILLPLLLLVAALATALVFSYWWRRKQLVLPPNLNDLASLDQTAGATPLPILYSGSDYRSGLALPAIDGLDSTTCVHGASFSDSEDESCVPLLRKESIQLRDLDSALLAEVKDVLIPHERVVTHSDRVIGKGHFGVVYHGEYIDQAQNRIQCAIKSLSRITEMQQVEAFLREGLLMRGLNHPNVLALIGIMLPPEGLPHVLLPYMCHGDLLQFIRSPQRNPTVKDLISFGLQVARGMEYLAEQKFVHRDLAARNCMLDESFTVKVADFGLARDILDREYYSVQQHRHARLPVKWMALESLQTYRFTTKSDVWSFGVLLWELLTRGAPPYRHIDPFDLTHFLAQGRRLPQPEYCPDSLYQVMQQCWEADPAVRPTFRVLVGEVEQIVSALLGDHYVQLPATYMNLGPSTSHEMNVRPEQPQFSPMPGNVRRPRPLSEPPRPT

NEK4 (human) = NEK4 (human) (UniProt P51957); details: compound 0.5 µM; ATP 10 µM
MAPKAPK3 (human) = MAPKAPK3 (human) (UniProt Q16644); details: compound 0.5 µM; ATP 10 µM
Sequence of MAPKAPK3 (human) (Q16644 whole entry, looked up): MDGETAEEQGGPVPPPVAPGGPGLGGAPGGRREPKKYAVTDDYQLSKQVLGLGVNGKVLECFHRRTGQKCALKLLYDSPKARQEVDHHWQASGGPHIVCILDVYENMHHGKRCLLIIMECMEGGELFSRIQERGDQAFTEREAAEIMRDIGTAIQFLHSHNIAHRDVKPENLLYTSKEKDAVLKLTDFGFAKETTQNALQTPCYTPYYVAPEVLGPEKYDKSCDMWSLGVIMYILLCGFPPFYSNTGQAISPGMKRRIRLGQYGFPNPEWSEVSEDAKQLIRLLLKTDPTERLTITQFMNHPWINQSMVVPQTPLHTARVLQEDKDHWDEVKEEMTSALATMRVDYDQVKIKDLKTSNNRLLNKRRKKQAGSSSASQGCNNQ

SRPK3 (human) = SRPK3 (human) (UniProt Q9UPE1); details: compound 0.5 µM; ATP 10 µM
ALK (human) = ALK (human) (UniProt Q9UM73); details: compound 0.5 µM; ATP 10 µM
AURKB (human) = AURKB (human) (UniProt Q96GD4); details: compound 0.5 µM; ATP 10 µM
AXL (human) = AXL (human) (UniProt P30530); details: compound 0.5 µM; ATP 10 µM
EGFR (human) = EGFR (human) (UniProt P00533); details: compound 0.5 µM; ATP 10 µM
CDK6 CCND3 (human) = CDK6 CCND3 (human) (UniProt P30281+Q00534); details: compound 0.5 µM
LRRK2 (human) = LRRK2 (human) (UniProt Q5S007); details: compound 0.5 µM; ATP 10 µM
HCK (human) = HCK (human) (UniProt P08631); details: compound 0.5 µM; ATP 10 µM
SIK2 (human) = SIK2 (human) (UniProt Q9H0K1); details: compound 0.5 µM; ATP 10 µM
PAK1 (human) = PAK1 (human) (UniProt Q13153); details: compound 0.5 µM; ATP 10 µM
PDPK1 (human) = PDPK1 (human) (UniProt O15530); details: compound 0.5 µM; ATP 10 µM
PHKG1 (human) = PHKG1 (human) (UniProt Q16816); details: compound 0.5 µM; ATP 10 µM
CAMKK2 (human) = CAMKK2 (human) (UniProt Q96RR4); details: compound 0.5 µM; ATP 10 µM
ACVR1B (human) = ACVR1B (human) (UniProt P36896); details: compound 0.5 µM; ATP 10 µM
DMPK (human) = DMPK (human) (UniProt Q09013); details: compound 0.5 µM; ATP 10 µM
PLK2 (human) = PLK2 (human) (UniProt Q9NYY3); details: compound 0.5 µM; ATP 10 µM
TAOK2 (human) = TAOK2 (human) (UniProt Q9UL54); details: compound 0.5 µM; ATP 10 µM

Sequence of DYRK4 (human) (Q9NR20 whole entry, looked up): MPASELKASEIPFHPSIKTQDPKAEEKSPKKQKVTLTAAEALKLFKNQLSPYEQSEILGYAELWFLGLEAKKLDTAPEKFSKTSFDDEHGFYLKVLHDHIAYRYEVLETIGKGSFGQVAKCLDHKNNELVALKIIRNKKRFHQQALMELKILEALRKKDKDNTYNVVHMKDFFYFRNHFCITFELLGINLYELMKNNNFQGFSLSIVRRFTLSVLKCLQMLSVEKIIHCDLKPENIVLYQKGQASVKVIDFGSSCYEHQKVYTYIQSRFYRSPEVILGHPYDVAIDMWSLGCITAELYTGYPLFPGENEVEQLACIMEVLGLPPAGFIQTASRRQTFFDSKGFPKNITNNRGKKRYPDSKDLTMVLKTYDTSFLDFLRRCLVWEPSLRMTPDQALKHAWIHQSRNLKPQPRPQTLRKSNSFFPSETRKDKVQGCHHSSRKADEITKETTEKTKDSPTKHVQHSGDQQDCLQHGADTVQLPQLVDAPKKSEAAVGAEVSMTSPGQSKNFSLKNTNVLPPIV
Sequence of TXK (human) (P42681 whole entry, looked up): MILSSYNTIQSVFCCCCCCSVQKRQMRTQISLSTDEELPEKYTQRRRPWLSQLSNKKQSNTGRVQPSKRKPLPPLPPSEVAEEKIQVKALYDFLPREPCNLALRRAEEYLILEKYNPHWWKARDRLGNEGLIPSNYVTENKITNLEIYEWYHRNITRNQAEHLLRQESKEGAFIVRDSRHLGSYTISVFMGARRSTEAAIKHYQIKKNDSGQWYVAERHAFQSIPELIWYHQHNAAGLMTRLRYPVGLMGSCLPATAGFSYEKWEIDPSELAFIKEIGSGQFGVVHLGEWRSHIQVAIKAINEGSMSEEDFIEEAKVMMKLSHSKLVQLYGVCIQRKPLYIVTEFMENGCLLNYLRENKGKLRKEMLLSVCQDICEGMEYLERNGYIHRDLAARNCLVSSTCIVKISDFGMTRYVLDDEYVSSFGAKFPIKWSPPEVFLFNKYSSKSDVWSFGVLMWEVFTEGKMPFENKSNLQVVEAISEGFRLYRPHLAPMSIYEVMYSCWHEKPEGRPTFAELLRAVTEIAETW

SMILES	residual activity (DYRK4 (human)) [%]	residual activity (TXK (human)) [%]	residual activity (CAMK1G (human)) [%]	residual activity (MYLK2 (human)) [%]	residual activity (CLK2 (human)) [%]	residual activity (PNCK (human)) [%]	residual activity (CHEK2 (human)) [%]	residual activity (PAK7 (human)) [%]	residual activity (IKBKE (human)) [%]	residual activity (PLK3 (human)) [%]	residual activity (EPHA4 (human)) [%]	residual activity (DYRK1B (human)) [%]	residual activity (STK33 (human)) [%]	residual activity (LCK (human)) [%]	residual activity (MST1R (human)) [%]	residual activity (NEK4 (human)) [%]	residual activity (MAPKAPK3 (human)) [%]	residual activity (SRPK3 (human)) [%]	residual activity (ALK (human)) [%]	residual activity (AURKB (human)) [%]	further results
Cc1cc(Nc2nc(-c3ccccc3)nc3ccccc23)n[nH]1	103	45.3	101	62.8	91.7	102	31.3	53.1	67.1	88.3	70.7	90.8	44.7	75.6	96.6	95	81	61.5	75.9	52	residual activity (BRAF (human)): 99.5%; residual activity (CDK6 CCND1 (human); ATP 10 µM): 85.5%; residual activity (AXL (human)): 101%; residual activity (EGFR (human)): 97.4%; residual activity (CDK6 CCND3 (human); ATP 10 µM): 58.4%; residual activity (LRRK2 (human)): 88.3%; residual activity (HCK (human)): 77.3%; residual activity (SIK2 (human)): 99.6%; residual activity (PAK1 (human)): 79.5%; residual activity (PDPK1 (human)): 90.3%; residual activity (PHKG1 (human)): 71.7%; residual activity (CAMKK2 (human)): 88.6%; residual activity (ACVR1B (human)): 103%; residual activity (DMPK (human)): 100%; residual activity (PLK2 (human)): 110%; residual activity (TAOK2 (human)): 90.3%
O=c1[nH]c2ccccc2n1C1CCN(Cc2ccc(-c3nc4cc5[nH]cnc5cc4nc3-c3ccccc3)cc2)CC1	109	104	101	103	114	95.5	100	110	91.9	99.1	97.1	97.9	89.6	98.2	111	106	104	107	106	98.7	residual activity (BRAF (human)): 101%; residual activity (CDK6 CCND1 (human)): 105%; residual activity (AXL (human)): 105%; residual activity (EGFR (human)): 99.8%; residual activity (CDK6 CCND3 (human)): 99.1%; residual activity (LRRK2 (human)): 103%; residual activity (HCK (human)): 99.6%; residual activity (SIK2 (human)): 114%; residual activity (PAK1 (human)): 90.6%; residual activity (PDPK1 (human)): 107%; residual activity (PHKG1 (human)): 106%; residual activity (CAMKK2 (human)): 112%; residual activity (ACVR1B (human)): 111%; residual activity (DMPK (human)): 98%; residual activity (PLK2 (human)): 95.5%; residual activity (TAOK2 (human)): 98.8%
N#CCCc1ccc2c(c1)-c1[nH]c3ccc([N+](=O)[O-])cc3c1CC(=O)N2	100	67.6	103	93.9	104	107	12.6	60.3	89.2	99.7	85.2	76.8	78.8	78.2	107	104	96.8	94.6	78.8	80	residual activity (BRAF (human)): 99.3%; residual activity (CDK6 CCND1 (human); ATP 10 µM): 6.79%; residual activity (AXL (human)): 95.5%; residual activity (EGFR (human)): 94.4%; residual activity (CDK6 CCND3 (human); ATP 10 µM): 26%; residual activity (LRRK2 (human)): 73.8%; residual activity (HCK (human)): 63.8%; residual activity (SIK2 (human)): 44.2%; residual activity (PAK1 (human)): 52.1%; residual activity (PDPK1 (human)): 79.8%; residual activity (PHKG1 (human)): 7.72%; residual activity (CAMKK2 (human)): 86.8%; residual activity (ACVR1B (human)): 110%; residual activity (DMPK (human)): 89.8%; residual activity (PLK2 (human)): 99%; residual activity (TAOK2 (human)): 86.4%
O=c1c2ccccc2[nH]c(=S)n1CCN1CCC(=C(c2ccc(F)cc2)c2ccc(F)cc2)CC1	97.5	100	104	99.9	87.8	109	106	97.4	101	96.2	99.4	97.1	106	99.5	103	99.1	109	102	104	102	residual activity (CDK6 CCND1 (human); ATP 10 µM): 98.7%; residual activity (AXL (human)): 91.7%; residual activity (EGFR (human)): 101%; residual activity (CDK6 CCND3 (human); ATP 10 µM): 98.2%; residual activity (LRRK2 (human)): 93.9%; residual activity (HCK (human)): 114%; residual activity (SIK2 (human)): 89.7%; residual activity (PAK1 (human)): 94.6%; residual activity (PDPK1 (human)): 99.2%; residual activity (PHKG1 (human)): 101%; residual activity (CAMKK2 (human)): 100%; residual activity (ACVR1B (human)): 103%; residual activity (DMPK (human)): 108%; residual activity (PLK2 (human)): 104%; residual activity (TAOK2 (human)): 109%
CCOc1cc2ncnc(Nc3cccc(Br)c3)c2cc1OCC	96.9	80.2	97.2	93.5	92.6	103	92	99.1	98.7	97.1	75.1	103	93.9	52.9	102	84.8	87.4	93.5	85.8	91.9	residual activity (BRAF (human)): 97.1%; residual activity (CDK6 CCND1 (human); ATP 10 µM): 102%; residual activity (AXL (human)): 89.9%; residual activity (EGFR (human)): 2.02%; residual activity (CDK6 CCND3 (human); ATP 10 µM): 104%; residual activity (LRRK2 (human)): 78.7%; residual activity (HCK (human)): 59.4%; residual activity (SIK2 (human)): 109%; residual activity (PAK1 (human)): 95.2%; residual activity (PDPK1 (human)): 96.8%; residual activity (PHKG1 (human)): 84.2%; residual activity (CAMKK2 (human)): 101%; residual activity (ACVR1B (human)): 101%; residual activity (DMPK (human)): 102%; residual activity (PLK2 (human)): 99.8%; residual activity (TAOK2 (human)): 101%
COc1cc2ncnc(Nc3ccc(O)c(Br)c3)c2cc1OC	101	83.3	103	87.3	96.7	103	51	97.7	94.6	95.2	83.7	91.3	80.7	48.9	101	93.1	96.2	92.4	12.5	63.5	residual activity (CDK6 CCND1 (human); ATP 10 µM): 95.4%; residual activity (AXL (human)): 89.4%; residual activity (EGFR (human)): 2.22%; residual activity (CDK6 CCND3 (human); ATP 10 µM): 102%; residual activity (LRRK2 (human)): 82.7%; residual activity (HCK (human)): 52.2%; residual activity (SIK2 (human)): 92.2%; residual activity (PAK1 (human)): 94.1%; residual activity (PDPK1 (human)): 96.6%; residual activity (PHKG1 (human)): 71.9%; residual activity (CAMKK2 (human)): 92.4%; residual activity (ACVR1B (human)): 105%; residual activity (DMPK (human)): 101%; residual activity (PLK2 (human)): 104%; residual activity (TAOK2 (human)): 95.8%

— the kinase profiling compilation of Christmann-Franck et al. (2016)
